Tests used:
Experiment in all cases: Kinase profiling
Format in all cases: biochemical
STK39(h) = biological target: T1, STK39(h) (Homo sapiens, UniProt Q9UEW8)
T1 construct: purchased Eurofins Cerep SA (KinaseProfiler)
Description: (§1) 380 kinases inhibitory activities of SKLB-D18 were conducted by Eurofins Cerep SA. The result was illustrated by kinase tree (http://www.kinhub.org/kinmap/).

NUAK2(h) = biological target: T2, NUAK2(h) (Homo sapiens, UniProt Q9H093)
T2 construct: purchased Eurofins Cerep SA (KinaseProfiler)
Description: as §1

MAPK7(h) = biological target: T3, MAPK7(h) (Homo sapiens, UniProt Q13164)
T3 construct: purchased Eurofins Cerep SA (KinaseProfiler)
Description: as §1

GCK(h) = biological target: T4, GCK(h) (Homo sapiens, UniProt Q12851)
T4 construct: purchased Eurofins Cerep SA (KinaseProfiler)
T4 sequence (Q12851 whole entry): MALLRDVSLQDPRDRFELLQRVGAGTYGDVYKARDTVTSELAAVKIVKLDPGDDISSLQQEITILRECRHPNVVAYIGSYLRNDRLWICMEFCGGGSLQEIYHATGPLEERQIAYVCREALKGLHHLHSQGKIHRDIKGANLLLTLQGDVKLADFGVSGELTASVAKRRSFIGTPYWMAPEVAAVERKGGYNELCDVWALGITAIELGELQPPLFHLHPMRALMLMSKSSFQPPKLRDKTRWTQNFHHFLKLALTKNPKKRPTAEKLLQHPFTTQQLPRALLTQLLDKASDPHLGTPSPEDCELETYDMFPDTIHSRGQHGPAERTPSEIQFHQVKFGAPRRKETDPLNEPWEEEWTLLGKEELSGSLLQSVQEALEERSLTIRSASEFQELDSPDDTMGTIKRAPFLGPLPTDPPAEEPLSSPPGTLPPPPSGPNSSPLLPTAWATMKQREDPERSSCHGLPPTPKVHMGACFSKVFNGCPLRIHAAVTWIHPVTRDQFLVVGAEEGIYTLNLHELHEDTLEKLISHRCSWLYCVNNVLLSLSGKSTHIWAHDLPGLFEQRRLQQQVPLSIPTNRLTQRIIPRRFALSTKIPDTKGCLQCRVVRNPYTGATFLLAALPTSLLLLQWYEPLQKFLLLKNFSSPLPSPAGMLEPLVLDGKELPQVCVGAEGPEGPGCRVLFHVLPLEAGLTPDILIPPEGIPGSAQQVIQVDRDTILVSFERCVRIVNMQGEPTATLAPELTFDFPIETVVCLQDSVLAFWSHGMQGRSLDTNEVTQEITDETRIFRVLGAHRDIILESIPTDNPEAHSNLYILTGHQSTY
Description: as §1

ALK1(h) = biological target: T5, ALK1(h) (Homo sapiens, UniProt P37023)
T5 construct: purchased Eurofins Cerep SA (KinaseProfiler)
T5 sequence (P37023 22-503): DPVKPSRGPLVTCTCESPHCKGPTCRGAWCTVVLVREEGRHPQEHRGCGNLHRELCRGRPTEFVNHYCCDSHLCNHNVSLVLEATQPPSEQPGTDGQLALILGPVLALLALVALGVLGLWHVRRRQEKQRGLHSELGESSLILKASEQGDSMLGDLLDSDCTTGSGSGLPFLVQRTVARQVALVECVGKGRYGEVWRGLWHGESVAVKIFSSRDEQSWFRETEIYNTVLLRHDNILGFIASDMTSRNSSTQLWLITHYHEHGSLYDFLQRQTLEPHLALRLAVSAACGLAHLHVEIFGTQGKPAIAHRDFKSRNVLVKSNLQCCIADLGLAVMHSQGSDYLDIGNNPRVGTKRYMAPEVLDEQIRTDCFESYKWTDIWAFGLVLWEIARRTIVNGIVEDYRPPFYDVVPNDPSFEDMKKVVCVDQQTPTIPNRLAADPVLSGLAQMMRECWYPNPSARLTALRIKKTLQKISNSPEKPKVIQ
Description: as §1

Fer(h) = biological target: T6, Fer(h) (Homo sapiens, UniProt P16591)
T6 construct: purchased Eurofins Cerep SA (KinaseProfiler)
Description: as §1

MLK1(h) = biological target: T7, MLK1(h) (Homo sapiens, UniProt P80192)
T7 construct: purchased Eurofins Cerep SA (KinaseProfiler)
Description: as §1

SAPK2a(h) = biological target: T8, SAPK2a(h) (Homo sapiens, UniProt Q16539)
T8 construct: purchased Eurofins Cerep SA (KinaseProfiler)
Description: as §1

MAPKAP-K2(h) = biological target: T9, MAPKAP-K2(h) (Homo sapiens, UniProt P49137)
T9 construct: purchased Eurofins Cerep SA (KinaseProfiler)
Description: as §1

TSSK2(h) = biological target: T10, TSSK2(h) (Homo sapiens, UniProt Q96PF2)
T10 construct: purchased Eurofins Cerep SA (KinaseProfiler)
Description: as §1

ARK5(h) = biological target: T11, ARK5(h) (Homo sapiens, UniProt O60285)
T11 construct: purchased Eurofins Cerep SA (KinaseProfiler)
Description: as §1

CLK2(h) = biological target: T12, CLK2(h) (Homo sapiens, UniProt P49760)
T12 construct: purchased Eurofins Cerep SA (KinaseProfiler)
Description: as §1

CK2α1(h) = biological target: T13, CK2α1(h) (Homo sapiens, UniProt P68400)
T13 construct: purchased Eurofins Cerep SA (KinaseProfiler)
Description: as §1

Syk(h) = biological target: T14, Syk(h) (Homo sapiens, UniProt P43405)
T14 construct: purchased Eurofins Cerep SA (KinaseProfiler)
Description: as §1

PKCδ(h) = biological target: T15, PKCδ(h) (Homo sapiens, UniProt Q05655)
T15 construct: purchased Eurofins Cerep SA (KinaseProfiler)
Description: as §1

MAP4K5(h) = biological target: T16, MAP4K5(h) (Homo sapiens, UniProt Q9Y4K4)
T16 construct: purchased Eurofins Cerep SA (KinaseProfiler)
Description: as §1

AMPKα2(h) = biological target: T17, AMPKα2(h) (Homo sapiens, UniProt P54646)
T17 construct: purchased Eurofins Cerep SA (KinaseProfiler)
Description: as §1

CDKL2(h) = biological target: T18, CDKL2(h) (Homo sapiens, UniProt Q92772)
T18 construct: purchased Eurofins Cerep SA (KinaseProfiler)
T18 sequence (Q92772 whole entry): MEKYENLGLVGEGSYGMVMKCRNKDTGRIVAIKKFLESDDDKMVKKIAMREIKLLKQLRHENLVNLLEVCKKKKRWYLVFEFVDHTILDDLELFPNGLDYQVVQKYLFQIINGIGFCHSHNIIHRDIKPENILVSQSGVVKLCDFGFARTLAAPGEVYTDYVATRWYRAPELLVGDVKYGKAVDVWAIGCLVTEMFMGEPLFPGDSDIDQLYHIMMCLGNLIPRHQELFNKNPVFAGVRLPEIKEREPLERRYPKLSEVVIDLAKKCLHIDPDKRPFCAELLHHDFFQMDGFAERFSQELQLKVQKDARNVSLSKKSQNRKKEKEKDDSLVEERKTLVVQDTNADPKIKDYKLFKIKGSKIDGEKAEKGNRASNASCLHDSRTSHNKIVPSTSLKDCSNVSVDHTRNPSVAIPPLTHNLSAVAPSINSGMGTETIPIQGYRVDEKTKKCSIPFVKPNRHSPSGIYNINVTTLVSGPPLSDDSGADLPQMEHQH
Description: as §1

STK33(h) = biological target: T19, STK33(h) (Homo sapiens, UniProt Q9BYT3)
T19 construct: purchased Eurofins Cerep SA (KinaseProfiler)
Description: as §1

ZAP-70(h) = biological target: T20, ZAP-70(h) (Homo sapiens, UniProt P43403)
T20 construct: purchased Eurofins Cerep SA (KinaseProfiler)
T20 sequence (P43403 whole entry): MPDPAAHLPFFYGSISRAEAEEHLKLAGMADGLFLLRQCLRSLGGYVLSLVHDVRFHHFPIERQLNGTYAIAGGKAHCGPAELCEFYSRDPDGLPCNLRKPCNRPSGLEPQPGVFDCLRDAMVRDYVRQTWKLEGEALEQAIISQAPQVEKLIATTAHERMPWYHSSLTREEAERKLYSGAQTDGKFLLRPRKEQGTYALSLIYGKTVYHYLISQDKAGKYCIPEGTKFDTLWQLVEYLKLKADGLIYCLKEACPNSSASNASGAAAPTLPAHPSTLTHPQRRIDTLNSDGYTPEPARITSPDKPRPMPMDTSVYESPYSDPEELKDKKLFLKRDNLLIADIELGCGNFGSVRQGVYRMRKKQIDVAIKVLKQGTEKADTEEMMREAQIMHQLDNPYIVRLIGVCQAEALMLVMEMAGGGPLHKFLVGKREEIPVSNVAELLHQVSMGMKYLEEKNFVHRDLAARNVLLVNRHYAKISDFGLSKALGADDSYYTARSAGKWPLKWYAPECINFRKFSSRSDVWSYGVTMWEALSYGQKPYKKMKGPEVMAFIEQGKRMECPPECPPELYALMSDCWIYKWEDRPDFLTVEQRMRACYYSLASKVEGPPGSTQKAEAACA
Description: as §1

Txk(h) = biological target: T21, Txk(h) (Homo sapiens, UniProt P42681)
T21 construct: purchased Eurofins Cerep SA (KinaseProfiler)
Description: as §1

JAK3(h) = biological target: T22, JAK3(h) (Homo sapiens, UniProt P52333)
T22 construct: purchased Eurofins Cerep SA (KinaseProfiler)
Description: as §1

PIP5K1g(h) = biological target: T23, PIP5K1g(h) (Homo sapiens, UniProt O60331)
T23 construct: purchased Eurofins Cerep SA (KinaseProfiler)
Description: as §1

CaMKIIδ(h) = biological target: T24, CaMKIIδ(h) (Homo sapiens, UniProt Q13557)
T24 construct: purchased Eurofins Cerep SA (KinaseProfiler)
Description: as §1

Pim-3(h) = biological target: T25, Pim-3(h) (Homo sapiens, UniProt Q86V86)
T25 construct: purchased Eurofins Cerep SA (KinaseProfiler)
Description: as §1

STK32A(h) = biological target: T26, STK32A(h) (Homo sapiens, UniProt Q8WU08)
T26 construct: purchased Eurofins Cerep SA (KinaseProfiler)
Description: as §1

MuSK(h) = biological target: T27, MuSK(h) (Homo sapiens, UniProt O15146)
T27 construct: purchased Eurofins Cerep SA (KinaseProfiler)
Description: as §1

Pim-2(h) = biological target: T28, Pim-2(h) (Homo sapiens, UniProt Q9P1W9)
T28 construct: purchased Eurofins Cerep SA (KinaseProfiler)
Description: as §1

GCN2(h) = biological target: T29, GCN2(h) (Homo sapiens, UniProt Q9P2K8)
T29 construct: purchased Eurofins Cerep SA (KinaseProfiler)
Description: as §1

FGFR2(h) = biological target: T30, FGFR2(h) (Homo sapiens, UniProt P21802)
T30 construct: purchased Eurofins Cerep SA (KinaseProfiler)
Description: as §1

ATR/ATRIP(h) = biological target: T31, ATR/ATRIP(h) (Homo sapiens, UniProt Q13535)
T31 construct: purchased Eurofins Cerep SA (KinaseProfiler)
Description: as §1

DDR2(h) = biological target: T32, DDR2(h) (Homo sapiens, UniProt Q16832)
T32 construct: purchased Eurofins Cerep SA (KinaseProfiler)
Description: as §1

Aurora-A(h) = biological target: T33, Aurora-A(h) (Homo sapiens, UniProt O14965)
T33 construct: purchased Eurofins Cerep SA (KinaseProfiler)
Description: as §1

CaMKK2(h) = biological target: T34, CaMKK2(h) (Homo sapiens, UniProt Q96RR4)
T34 construct: purchased Eurofins Cerep SA (KinaseProfiler)
Description: as §1

Lck(h) activated = biological target: T35, Lck(h) activated (Homo sapiens, UniProt P06239)
T35 construct: purchased Eurofins Cerep SA (KinaseProfiler)
Description: as §1

DYRK1B(h) = biological target: T36, DYRK1B(h) (Homo sapiens, UniProt Q9Y463)
T36 construct: purchased Eurofins Cerep SA (KinaseProfiler)
T36 sequence (Q9Y463 whole entry): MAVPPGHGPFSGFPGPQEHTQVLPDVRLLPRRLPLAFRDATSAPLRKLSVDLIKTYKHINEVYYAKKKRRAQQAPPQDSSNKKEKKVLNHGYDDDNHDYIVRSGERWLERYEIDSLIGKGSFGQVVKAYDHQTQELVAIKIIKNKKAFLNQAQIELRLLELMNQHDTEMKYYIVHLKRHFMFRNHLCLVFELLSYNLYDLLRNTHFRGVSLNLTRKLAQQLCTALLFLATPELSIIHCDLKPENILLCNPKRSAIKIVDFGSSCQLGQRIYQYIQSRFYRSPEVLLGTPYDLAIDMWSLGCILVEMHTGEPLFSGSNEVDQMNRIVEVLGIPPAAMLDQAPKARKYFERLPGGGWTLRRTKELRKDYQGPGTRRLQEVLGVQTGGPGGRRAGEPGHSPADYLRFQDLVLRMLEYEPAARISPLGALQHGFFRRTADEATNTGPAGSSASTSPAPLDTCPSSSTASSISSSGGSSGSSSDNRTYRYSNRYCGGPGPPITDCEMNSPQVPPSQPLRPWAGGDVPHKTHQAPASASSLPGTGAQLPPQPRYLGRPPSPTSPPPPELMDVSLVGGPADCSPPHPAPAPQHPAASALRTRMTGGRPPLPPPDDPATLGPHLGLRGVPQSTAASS
Description: as §1

EphA5(h) = biological target: T37, EphA5(h) (Homo sapiens, UniProt P54756)
T37 construct: purchased Eurofins Cerep SA (KinaseProfiler)
T37 sequence (P54756 25-1037): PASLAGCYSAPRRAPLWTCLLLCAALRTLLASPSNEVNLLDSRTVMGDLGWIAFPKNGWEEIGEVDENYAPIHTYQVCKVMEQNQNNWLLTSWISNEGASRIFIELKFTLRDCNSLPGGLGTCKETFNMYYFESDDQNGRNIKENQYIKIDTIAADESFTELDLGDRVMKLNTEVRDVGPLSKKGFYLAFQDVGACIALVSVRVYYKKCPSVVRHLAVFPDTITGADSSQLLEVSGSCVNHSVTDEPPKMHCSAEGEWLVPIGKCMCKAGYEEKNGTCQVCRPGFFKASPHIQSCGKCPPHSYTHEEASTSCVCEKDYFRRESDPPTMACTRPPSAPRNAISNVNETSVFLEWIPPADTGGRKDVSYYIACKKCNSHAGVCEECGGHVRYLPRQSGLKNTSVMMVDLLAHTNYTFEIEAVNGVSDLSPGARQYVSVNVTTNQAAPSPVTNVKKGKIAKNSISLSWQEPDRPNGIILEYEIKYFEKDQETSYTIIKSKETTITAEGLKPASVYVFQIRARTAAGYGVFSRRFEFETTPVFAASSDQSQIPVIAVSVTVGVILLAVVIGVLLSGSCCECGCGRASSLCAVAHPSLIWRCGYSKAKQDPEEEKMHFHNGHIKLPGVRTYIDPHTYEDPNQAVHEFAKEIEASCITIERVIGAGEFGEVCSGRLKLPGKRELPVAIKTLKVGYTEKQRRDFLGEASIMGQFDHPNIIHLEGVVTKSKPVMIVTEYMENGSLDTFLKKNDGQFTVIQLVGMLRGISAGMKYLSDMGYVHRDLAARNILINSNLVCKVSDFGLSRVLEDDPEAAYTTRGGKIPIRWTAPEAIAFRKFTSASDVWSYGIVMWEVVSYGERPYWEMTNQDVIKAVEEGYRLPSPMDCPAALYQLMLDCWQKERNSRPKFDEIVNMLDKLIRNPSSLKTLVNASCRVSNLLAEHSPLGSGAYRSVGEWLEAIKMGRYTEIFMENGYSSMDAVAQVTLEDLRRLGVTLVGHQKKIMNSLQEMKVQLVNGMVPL
Description: as §1

FGFR1(h) = biological target: T38, FGFR1(h) (Homo sapiens, UniProt P11362)
T38 construct: purchased Eurofins Cerep SA (KinaseProfiler)
Description: as §1

IKKα(h) = biological target: T39, IKKα(h) (Homo sapiens, UniProt O15111)
T39 construct: purchased Eurofins Cerep SA (KinaseProfiler)
T39 sequence (O15111 whole entry): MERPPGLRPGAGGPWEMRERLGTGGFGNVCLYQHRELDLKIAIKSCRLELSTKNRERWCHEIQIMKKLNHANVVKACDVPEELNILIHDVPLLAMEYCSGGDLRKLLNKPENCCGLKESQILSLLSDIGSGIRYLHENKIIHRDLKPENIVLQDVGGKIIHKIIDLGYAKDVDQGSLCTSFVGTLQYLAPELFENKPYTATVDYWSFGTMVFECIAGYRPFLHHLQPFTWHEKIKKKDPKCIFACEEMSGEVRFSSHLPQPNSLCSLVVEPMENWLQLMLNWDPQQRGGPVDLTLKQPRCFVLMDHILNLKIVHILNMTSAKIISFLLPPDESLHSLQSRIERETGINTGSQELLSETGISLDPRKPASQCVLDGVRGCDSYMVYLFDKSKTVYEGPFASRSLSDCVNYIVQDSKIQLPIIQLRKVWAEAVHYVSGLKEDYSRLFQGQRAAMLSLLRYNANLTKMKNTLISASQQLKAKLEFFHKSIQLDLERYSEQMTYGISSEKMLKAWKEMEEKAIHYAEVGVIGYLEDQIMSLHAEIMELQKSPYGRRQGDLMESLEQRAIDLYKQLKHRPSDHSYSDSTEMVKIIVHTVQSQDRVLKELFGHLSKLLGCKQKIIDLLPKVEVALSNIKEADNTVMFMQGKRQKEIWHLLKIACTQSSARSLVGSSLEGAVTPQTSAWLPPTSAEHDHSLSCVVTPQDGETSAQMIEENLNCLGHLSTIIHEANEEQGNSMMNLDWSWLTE
Description: as §1

PI3KC2g(h) = biological target: T40, PI3KC2g(h) (Homo sapiens, UniProt O75747)
T40 construct: purchased Eurofins Cerep SA (KinaseProfiler)
Description: as §1

SRMS(h) = biological target: T41, SRMS(h) (Homo sapiens, UniProt Q9H3Y6)
T41 construct: purchased Eurofins Cerep SA (KinaseProfiler)
Description: as §1

CN(C)Cc1cccc(Nc2ncc(Cl)c(-c3csc(C(=O)NN4CCOCC4)c3)n2)c1 [SKLB-D18, 4-(5-chloro-2-((3-((dimethylamino)methyl)phenyl)amino)pyrimidin-4-yl)-N-morpholinothiophene-2-carboxamide]
inhibition at 1 µM (STK39(h)): 37% | inhibition at 1 µM (NUAK2(h)): 67% | inhibition at 1 µM (MAPK7(h)): 93% | inhibition at 1 µM (GCK(h)): 57% | inhibition at 1 µM (ALK1(h)): 20% | inhibition at 1 µM (Fer(h)): 16% | inhibition at 1 µM (MLK1(h)): 61% | inhibition at 1 µM (SAPK2a(h)): 9% | inhibition at 1 µM (MAPKAP-K2(h)): 1% | inhibition at 1 µM (TSSK2(h)): -2% | inhibition at 1 µM (ARK5(h)): 72% | inhibition at 1 µM (CLK2(h)): 58% | inhibition at 1 µM (CK2α1(h)): 49% | inhibition at 1 µM (Syk(h)): 38% | inhibition at 1 µM (PKCδ(h)): 23% | inhibition at 1 µM (MAP4K5(h)): 51% | inhibition at 1 µM (AMPKα2(h)): 60% | inhibition at 1 µM (CDKL2(h)): 39% | inhibition at 1 µM (STK33(h)): 63% | inhibition at 1 µM (ZAP-70(h)): 1% | inhibition at 1 µM (Txk(h)): 26% | inhibition at 1 µM (JAK3(h)): 67% | inhibition at 1 µM (PIP5K1g(h)): -4% | inhibition at 1 µM (CaMKIIδ(h)): 47% | inhibition at 1 µM (Pim-3(h)): 33% | inhibition at 1 µM (STK32A(h)): -3% | inhibition at 1 µM (MuSK(h)): 20% | inhibition at 1 µM (Pim-2(h)): 26% | inhibition at 1 µM (GCN2(h)): 69% | inhibition at 1 µM (FGFR2(h)): 55% | inhibition at 1 µM (ATR/ATRIP(h)): 13% | inhibition at 1 µM (DDR2(h)): -2% | inhibition at 1 µM (Aurora-A(h)): 51% | inhibition at 1 µM (CaMKK2(h)): 21% | inhibition at 1 µM (Lck(h) activated): 68% | inhibition at 1 µM (DYRK1B(h)): 67% | inhibition at 1 µM (EphA5(h)): 3% | inhibition at 1 µM (FGFR1(h)): 70% | inhibition at 1 µM (IKKα(h)): 34% | inhibition at 1 µM (PI3KC2g(h)): -7% | inhibition at 1 µM (SRMS(h)): 11%

From publication PMC11842588, “A first-in-class selective inhibitor of ERK1/2 and ERK5 overcomes drug resistance with a single-molecule strategy” (Signal Transduction and Targeted Therapy, 2025)
